Four compounds from US20220280607A1, “Treatment of Heart Defects and Conditions in Pediatric Patients” (University of Pittsburgh - Of the Commonwealth System of …, priority 2019, published 2022) can be followed below.

In assay [1] the test system is heart muscle cells of neonatal mice. The assay is described as follows: Neonatal mice given beta blocker by retro-orbital injection (Examples 2 and 3): total cardiomyocytes, heart-body weight ratio. The note with it: retro-orbital injection twice a day, 1 μg/μl, 10 μl per g body weight; for heart-body-weight ratio: FIG. 17B, 18B; for total number of heart muscle cells (cardiomyocytes): P4 and P8 groups, FIG. 17A, 18A. The class given is in vivo, mouse. How it is done: (§1) Metoprolol was dissolved in PBS (1 μg/μl). The metoprolol was administered to neonatal mice using retro-orbital injection twice a day at the dose of 10 μl solution each 1 g body weight In the 4-day-old group (P4), the drug administration was performed at 9 am and 3 μm, respectively, from P1 and P3, then only injections at 9 am were performed at P4. The hearts were isolated at P4 in the afternoon. In the 8-day-old group (P8), the drug administration was performed at 9 am and 3 μm, respectively, from P1 and P7, then only injections at 9 am were performed at P8. The hearts were isolated at P8 in the afternoon.
as §1, with “Alprenolol” for “Metoprolol”, “alprenolol” for “metoprolol”, “pm,” for “μm,”

The test system of assay [2] is human fetal cardiomyocytes. As to the kind of experiment: Cytokinesis failure in cultured human fetal cardiomyocytes (β-adrenergic receptor signaling pathway studies). It is filed as cell-based. The note with it: cultured human fetal cardiomyocytes, 10 μM, FIG. 14C. The method, then: Primary cardiomyocyte culture experiments: Neonatal (mouse or rat) cardiomyocytes or human fetal cardiomyocytes were plated in 4-well chamber slides pre-coated with fibronectin (10 μg/ml) at a density of 200,000 cells/well and cultured with DMEM/high glucose (for mouse and rat cardiomyocytes) or IMDM (for fetal human cardiomyocytes) containing 10% fetal bovine serum (FBS) and recombinant neuregulin 1 (rNRG1, 100 nanograms per milliliter (ng/ml)) overnight. All treatments and BrdU (30 micromolar (μM)) were added on the next day.
β-adrenergic receptor signaling pathway studies: Forskolin (10 μM), propranolol (10 μM), dobutamine (10 μM), or a combination of propranolol (10 μM) and dobutamine (10 μM) were added to the culture from day 1 to day 3. The cells were collected for examining gene expression or immunofluorescence microscopy at day 3.
Cardiomyocytes cultured on glass surfaces. […] The BrdU-positive nuclei, cell-cell boundaries (Pan-Cadherin antibody), and cardiomyocyte markers (α-actinin or troponin I antibody) were labeled by immunofluorescence. The stained cells were imaged under Nikon confocal microscope. The binucleated cardiomyocytes and all BrdU-positive cardiomyocytes were quantified using Fiji software.

Assay [3] relates to cardiomyocytes from infants with ToF/PS. As to the kind of experiment: ToF/PS myocardium tissue (organotypic) culture: binucleated BrdU-labeled cardiomyocytes. It is filed as cell-based, human. The note with it: organotypic cultures of heart pieces from infants with ToF/PS, 10 μM, BrdU, FIG. 14E. How it is done:
ToF/PS myocardium tissue culture: Discarded myocardium samples were collected during ToF/PS surgery, cut into ˜1 mm^3 tissue blocks, and cultured in IMDM media containing 10% FBS, recombinant neuregulin 1 (rNRG1, 100 ng/ml), and BrdU (30 μM) for 6 days. Samples were treated with forskolin (10 μM), propranolol (10 μM), dobutamine (10 μM), or a combination of propranolol (10 μM) and dobutamine (10 μM).
Cultured ToF/PS myocardium. Cardiomyocytes were isolated from cultured myocardium with the fixation-digestion method. After denaturing the DNA with 2N HCl and neutralization with 2 Normal (N) sodium hydroxide (NaOH), immunofluorescence antibody labeling was performed in solution. The proportion of binucleated and BrdU-positive was quantified with a Nikon A1R microscope.

The subject of assay [4] is cardiomyocytes of newborn mice. As to the kind of experiment: Mouse pharmacological treatment of newborn mice: binucleated cardiomyocytes, cardiomyocyte endowment, cell cycle activity, heart weight. The class given is in vivo. The note with it: newborn mice; for increase in the proportion of binucleated cardiomyocytes: forskolin 1 μg/g, 1 i.p. injection per day, FIG. 12B. The method, then:
[…] An equal volume of phosphate buffered saline (PBS) was injected in the control groups.
Isolation of intact cardiomyocytes for quantification: We used a previously validated fixation digestion method to isolate intact cardiomyocytes from fresh or frozen myocardium for quantification (Mollova, M., et al. “Cardiomyocyte proliferation in human heart growth” Proceedings of the National Academy of Sciences January 2013, 110 (4) 1446-1451; DOI: 10.1073/pnas.1214608110). The myocardium was cut into 1 cubic millimeter (mm^3) sized tissue blocks followed by incubation with 3.7% formaldehyde at room temperature for 1.8 hours. After being washed with PBS 3 times to remove the formaldehyde, the fixed tissue blocks were digested in enzyme solution (Collagenase B, 3.6 mg/ml; Collagenase D, 4.8 mg/ml) at 37 degrees Celsius (° C.), with 10 revolutions per minute (rpm) overhead rotation. The digested cells were collected every 24 hours from the supernatant, and the undigested tissue was re-suspended with fresh enzyme solution until all of the tissue pieces were digested. All of the digested cells from the same heart were then combined and allowed to settle to the bottom of the tube. The cell pellet was collected for further study.
Counting of cardiomyocytes after fixation and digestion: All fractions from the digestion of a heart were combined in 2 milliliters (mL) PBS and cardiomyocytes were quantified using a hemocytometer.
Intact cardiomyocytes in suspension. To assess M-phase, intact cardiomyocytes were isolated by fixation-digestion. The solution containing the stained cells was then transferred to 8-well chambered cover glass (400 μl/well). After the cells were settled down to the bottom of the chambers, the number of mono/bi/multinucleated cardiomyocytes were counted with a fluorescence microscope, and the percentage of mono/bi/multinucleated cardiomyocytes was calculated. To quantify the proportion of H3P-positive cardiomyocytes, the concentration of stained cardiomyocytes in suspension (Ccardiomyocytes) was first measured using a hemocytometer. The cell suspension (400 μl) was then transferred to a well of a chamber slide, and the total number of H3P-positive cardiomyocytes (HH3P+) inside the well was counted with a TiE epifluorescence microscope. The proportion of the H3P-positive cardiomyocytes (PH3P+) was calculated using the following formula: […]
Heart sections: To determine S-phase, BrdU (40 μg/g body) was administered to P7 ICR mice and the hearts were resected at P8, fixed, and cryosectioned at 15 μm thickness. From each heart, four heart sections at a distance of 300 μm were selected and imaged by tile scanning with a Nikon A1R confocal microscope. The total number of BrdU-positive cardiomyocytes at the selected heart sections was counted. The total area of the selected heart sections was measured by Fiji software. The density of BrdU-positive cardiomyocytes (cells/mm^2) in the hearts was calculated using the following equation: […]
Intact cardiomyocytes in suspension. Cardiomyocytes were isolated from fresh or frozen (human or mouse) ventricle myocardium using the fixation-digestion method, followed by immunostaining as described above. The cells were then imaged and quantified with a Nikon A1R microscope for mono/bi/multi-nucleation.

Consider `COCCc1ccc(OCC(O)CNC(C)C)cc1` (centres unmarked) [Metoprolol, 1-[4-(2-methoxyethyl)phenoxy]-3-(propan-2-ylamino)propan-2-ol], for which, in assay [1], the heart-body-weight ratio entry is given as “did not alter” and the “total number of heart muscle cells (cardiomyocytes)” value is given as “did not alter”.
With `CC(CCc1ccc(O)cc1)NCCc1ccc(O)c(O)c1` (centres unmarked) [dobutamine], the “binucleated cardiomyocytes as % of the Fsk-induced increase” value in assay [2] is given as 95.2%. For the same compound, the “proportion of binucleated cardiomyocytes” value in assay [3] is given as “maximal increase”.
In the case of `C=C[C@@]1(C)CC(=O)[C@]2(O)[C@@]3(C)[C@@H](O)CCC(C)(C)[C@@H]3[C@H](O)[C@H](OC(C)=O)[C@@]2(C)O1` [forskolin], the “increase in the proportion of binucleated cardiomyocytes” value is reported as 37% in assay [4] (after 4 days) and 21% in assay [4] (after 8 days).
With `C=CCc1ccccc1OCC(O)CNC(C)C` (centres unmarked) [alprenolol, 1-(propan-2-ylamino)-3-(2-prop-2-enylphenoxy)propan-2-ol], in assay [1], the heart-body-weight ratio result is listed as “without altering” and the “total number of heart muscle cells (cardiomyocytes)” value is on record as “increases”. Further, in assay [4] (2 i.p. injections per day, FIG. 16A, 16B), the heart weight result is reported as “did not result in a change”. For the same compound, the “increase of cardiomyocyte endowment” value in assay [4] (at P8, 2 i.p. injections per day, counting fixation-digested hearts, FIG. 12D, 12H) turned out to be 24%. The “decrease of the proportion/formation of binucleated cardiomyocytes” value in assay [4] (treatment from P1 to P8, 2 i.p. injections per day (propranolol 10 μg/g; alprenolol 10 μg/g, 40 μg/g), FIG. 12C, 12G) is on record as 13%.
